Reference: ChEMBL document CHEMBL1133864, “Identification of a novel family of nucleosides that specifically inhibit HIV-1 reverse transcriptase” (Bioorg Med Chem Lett, 2001)

How the values were obtained:
[1] = test system: CCRF-CEM; assay: Concentration required to reduce the viability of mock-infected CEM cells by 50%; format: functional; details: Homo sapiens
[2] = test system: Human immunodeficiency virus 2; assay: Effective concentration required to inhibit HIV-2 induced cytopathicity by 50% in CEM cells; format: functional, organism-based; details: Human immunodeficiency virus 2, CCRF-CEM
[3] = target: T1, Human immunodeficiency virus type 1 reverse transcriptase (Human immunodeficiency virus 1, UniProt Q72547); assay: The compound was evaluated for inhibition of HIV-1 wild types […]-Lys recombinant reverse transcriptase
[4] = target: T1, Human immunodeficiency virus type 1 reverse transcriptase; assay: The compound was evaluated for inhibition of HIV-1 mutant […]-Lys recombinant reverse transcriptase

SMILES	EC50 [2] [µM]	CC50 [1] [µM]	IC50 [3] [µM]	IC50 [4] [µM]
Cc1cn(C2OC(CO[Si](C)(C)C(C)(C)C)CC2O[Si](C)(C)C(C)(C)C)c(=O)n(CC(=O)O)c1=O (stereo not drawn)	> 10	20.7	33.8	47.4
Cc1cn([C@@H]2O[C@H](CO[Si](C)(C)C(C)(C)C)C3(OS(=O)(=O)C=C3N)[C@H]2O[Si](C)(C)C(C)(C)C)c(=O)[nH]c1=O (stereo partly drawn)	> 20	14	3.6	> 500
Cc1cn([C@@H]2O[C@H](CO)[C@@H](O)[C@H]2O[Si](C)(C)C(C)(C)C)c(=O)n(CC(=O)O)c1=O	> 250	> 250	–	–
Cc1cn([C@@H]2O[C@H](CO[Si](C)(C)C(C)(C)C)[C@@H](O)[C@H]2O[Si](C)(C)C(C)(C)C)c(=O)n(CC(=O)O)c1=O	> 10	23	138	158
Cc1cn([C@@H]2O[C@H](CO[Si](C)(C)C(C)(C)C)[C@@H](O[Si](C)(C)C(C)(C)C)[C@H]2O[Si](C)(C)C(C)(C)C)c(=O)n(CC(=O)OCc2ccccc2)c1=O	> 50	102	–	–
Cc1cn([C@@H]2O[C@H](CO[Si](C)(C)C(C)(C)C)[C@@H](O[Si](C)(C)C(C)(C)C)[C@H]2O[Si](C)(C)C(C)(C)C)c(=O)n(CC(=O)O)c1=O	> 125	> 125	–	–
Cc1cn([C@@H]2O[C@H](CO[Si](C)(C)C(C)(C)C)[C@@H](O[Si](C)(C)C(C)(C)C)[C@H]2O)c(=O)n(CC(=O)O)c1=O	> 10	29.3	207	335
Cc1cn(C2CCC(CO[Si](C)(C)C(C)(C)C)O2)c(=O)n(CC(=O)OCc2ccccc2)c1=O (stereo not drawn)	> 50	> 250	–	–
Cc1cn(C2CCC(CO[Si](C)(C)C(C)(C)C)O2)c(=O)n(CC(=O)O)c1=O (stereo not drawn)	> 250	> 250	–	–
Cc1cn(C2O[C@H](CO[Si](C)(C)C(C)(C)C)[C@@H](O)[C@H]2O)c(=O)n(CC(=O)O)c1=O (stereo partly drawn)	> 250	> 250	–	–
Cc1cn(C2O[C@H](CO[Si](C)(C)C(C)(C)C)[C@@H](O)[C@H]2O)c(=O)n(CC(=O)OCc2ccccc2)c1=O (stereo partly drawn)	> 10	30	–	–
Cc1cn(C2O[C@H](CO)[C@@H](O)[C@H]2O)c(=O)n(CC(=O)O)c1=O (stereo partly drawn)	> 250	> 250	–	–
Cc1cn(C2O[C@H](CO)[C@@H](O)[C@H]2O)c(=O)n(CC(=O)OCc2ccccc2)c1=O (stereo partly drawn)	> 250	> 250	–	–

More lines, main results first:

EC50 [2] [µM]	SMILES	CC50 [1] [µM]	IC50 [3] [µM]	IC50 [4] [µM]
> 2	Cc1cn(C2OC(CO[Si](C)(C)C(C)(C)C)CC2O[Si](C)(C)C(C)(C)C)c(=O)n(CC(=O)OCc2ccccc2)c1=O (stereo not drawn)	21.6	–	–
> 10	Cc1cn([C@H]2C[C@H](O[Si](C)(C)C(C)(C)C)[C@@H](CO[Si](C)(C)C(C)(C)C)O2)c(=O)n(CC(=O)OCc2ccccc2)c1=O	56.4	–	–
> 10	Cc1cn([C@@H]2O[C@H](CO[Si](C)(C)C(C)(C)C)[C@@H](O[Si](C)(C)C(C)(C)C)[C@H]2O)c(=O)n(CC(=O)OCc2ccccc2)c1=O	57.1	–	–
> 10	Cc1cn([C@@H]2O[C@H](CO)[C@@H](O)[C@H]2O[Si](C)(C)C(C)(C)C)c(=O)n(CC(=O)OCc2ccccc2)c1=O	26	–	–
> 10	Cc1cn([C@H]2C[C@H](O[Si](C)(C)C(C)(C)C)[C@@H](CO[Si](C)(C)C(C)(C)C)O2)c(=O)n(CC(=O)O)c1=O	20.3	–	–
> 10	Cc1cn([C@@H]2O[C@H](CO[Si](C)(C)C(C)(C)C)[C@@H](O)[C@H]2O[Si](C)(C)C(C)(C)C)c(=O)n(CC(=O)OCc2ccccc2)c1=O	25.7	–	–
0.004	Cc1cn([C@H]2C[C@H](N=[N+]=[N-])[C@@H](CO)O2)c(=O)[nH]c1=O [ZIDOVUDINE]	6	–	–
